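Each compound was tested at five concentrations against cells in 96-well plates for 48 hours. The concentration for 50% growth inhibition is given as GI50. TGI: total growth inhibition.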
Experiments:
Experiment in all cases: NCI anticancer screen, dose series, 48 h
SK-MEL-28 melanoma = test system: SK-MEL-28 melanoma
TK-10 renal = test system: TK-10 renal
UACC-62 melanoma = test system: UACC-62 melanoma
HOP-92 NSCLC = test system: HOP-92 NSCLC
KM12 colon = test system: KM12 colon
SN12C renal = test system: SN12C renal
ACHN renal = test system: ACHN renal
A549 NSCLC = test system: A549 NSCLC
PC-3 prostate = test system: PC-3 prostate
HOP-62 NSCLC = test system: HOP-62 NSCLC

SMILES | TGI (SK-MEL-28 melanoma) | TGI (TK-10 renal) | TGI (UACC-62 melanoma) | TGI (HOP-92 NSCLC) | TGI (KM12 colon) | TGI (SN12C renal) | TGI (ACHN renal) | TGI (A549 NSCLC) | TGI (PC-3 prostate) | TGI (HOP-62 NSCLC) | GI50 (SK-MEL-28 melanoma) | GI50 (TK-10 renal) | GI50 (UACC-62 melanoma) | GI50 (KM12 colon) | GI50 (SN12C renal) | GI50 (ACHN renal) | GI50 (A549 NSCLC) | GI50 (PC-3 prostate)
N/C(=N\S(=O)(=O)c1ccc(-c2ccccn2)s1)Nc1ccc(Cl)cc1 | 37.8 µM | 32.1 µM | 26.4 µM | 28.9 µM | 70.4 µM | 30.3 µM | 33.6 µM | 47.2 µM | 27.3 µM | 39.2 µM |  |  |  |  |  |  |  | 
CC(=O)NNC(=S)/N=C\c1c(O)c2ccccc2oc1=O | > 100 µM | > 100 µM | > 100 µM |  | > 100 µM | > 100 µM | > 100 µM | > 100 µM | > 100 µM | > 100 µM |  |  |  |  |  |  |  | 
N#C/C=c1/c2ccccc2n2nc3ccccc3c12 | > 100 µM | 30.5 µM | > 100 µM |  | 68.3 µM | > 100 µM | 27.9 µM | > 100 µM | > 100 µM | 44.4 µM |  |  |  |  |  |  |  | 
Cn1cc(-c2nc(-c3c[nH]c4ccncc34)cs2)c2ccccc21 | 3.14 µM | 3.46 µM | 3.11 µM |  | 2.35 µM | 3.27 µM | 2.96 µM | 3.46 µM | 2.96 µM |  | 1.71 µM | 1.97 µM | 1.69 µM | 1.11 µM | 1.76 µM | 1.6 µM | 1.83 µM | 1.45 µM
O=C(OCC1CCCN2CCCCC12)c1cccnc1 (centres undefined) | > 100 µM | > 100 µM | > 100 µM | > 100 µM | > 100 µM | > 100 µM | > 100 µM | > 100 µM | > 100 µM |  |  |  |  |  |  |  |  | 
Cc1ccc(S(=O)(=O)NC(=O)NCCc2ccc(O)c(O)c2)cc1 | > 100 µM | > 100 µM | > 100 µM | > 100 µM | > 100 µM |  | > 100 µM | > 100 µM | > 100 µM | > 100 µM |  |  |  |  |  |  |  | 
Cc1ccc2n(c1)cc(-c1ccc(/C=N/NC(=N)N/N=C/c3ccc(-c4cn5cc(C)ccc5[n+]4C)cc3)cc1)[n+]2C | 33.6 µM | > 100 µM |  |  | > 100 µM | > 100 µM | > 100 µM | > 100 µM | > 100 µM | > 100 µM |  |  |  |  |  |  |  | 
COc1cc(OCc2nc3cc(C(F)(F)F)ccc3nc2-c2ccccc2)cc(OC)c1OC | > 100 µM | > 100 µM | > 100 µM | > 100 µM | > 100 µM |  | > 100 µM | > 100 µM | > 100 µM |  |  |  |  |  |  |  |  | 
COC(=O)c1ccccc1NC(=S)NN(C)C | > 100 µM | > 100 µM | > 100 µM |  | > 100 µM |  | > 100 µM | > 100 µM | > 100 µM |  |  |  |  |  |  |  |  | 
CCCc1n[nH]c(=O)n1N1C(=O)C=CC1=O |  | > 100 µM | > 100 µM |  |  | > 100 µM |  | > 100 µM | > 100 µM | > 100 µM |  |  |  |  |  |  |  | 
CCOC(=O)CCC(NC(=O)c1ccc(Nc2nc3cc(C(F)(F)F)ccc3nc2C(=O)OCC)cc1)C(=O)OCC (centres undefined) | 27.9 µM |  | 41.7 µM | 9.95 µM |  | 24.3 µM | 26.7 µM | 27.4 µM | 21.5 µM | 27 µM |  |  |  |  |  |  |  | 

— PubChem BioAssay (NCI)
